These are literature values, as cited in PMC4781755 (Biochemistry, 2015).

In one data set the test system is hNaDC1. The settings on record: read-out: Km for succinate, hNaDC1.
Another data set has as its system hNaDC3. The settings on record: read-out: Km for succinate, hNaDC3.

Structures are written as SMILES.

As to `O=C(O)CC(O)(CC(=O)O)C(=O)O` [citrate], the “inhibition of vcINDY” value in the data set with vcINDY was “weak inhibitor”.

For the molecule `O=C(O)CCC(=O)O` [succinate], the Km is 500 µM in the data set on hNaDC1 and roughly 20 µM in the data set on hNaDC3.
